Numbering of substitutions follows the chain as printed.
How the values were obtained:
[1] = target: T1, RARα/RXRα heterodimer bound to a DR-5 retinoic acid receptor response element (RARE) (Homo sapiens, UniProt P10276); assay: DNA dependent coregulator recruitment assay (ternary complex immunoprecipitation from transfected CV-1 whole cell extracts); format: biochemical; conditions: for ligand mediated dissociation of N-CoR: wild type RARα ternary complex; for SRC-1 recruitment to the wild type ternary complex: wild type RARα/RXRα, FIG. 1, FIG. 5B
T1 construct: expressed in transfected cells; host or cells: CV-1 cells, transient transfection; whole cell extract
T1 sequence (P10276 1-462): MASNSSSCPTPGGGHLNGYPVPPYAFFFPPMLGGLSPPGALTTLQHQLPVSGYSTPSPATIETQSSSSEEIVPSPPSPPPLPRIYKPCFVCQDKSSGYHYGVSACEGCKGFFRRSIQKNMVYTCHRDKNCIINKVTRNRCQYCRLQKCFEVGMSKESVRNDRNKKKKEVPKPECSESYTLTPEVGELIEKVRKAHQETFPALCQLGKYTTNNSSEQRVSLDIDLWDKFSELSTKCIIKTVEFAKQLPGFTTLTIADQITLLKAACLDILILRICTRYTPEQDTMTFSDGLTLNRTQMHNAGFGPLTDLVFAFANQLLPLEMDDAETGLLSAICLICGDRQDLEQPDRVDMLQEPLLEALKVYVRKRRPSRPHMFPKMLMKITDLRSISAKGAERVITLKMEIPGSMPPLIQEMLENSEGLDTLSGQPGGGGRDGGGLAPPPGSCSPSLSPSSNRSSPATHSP
T1 sequence (P19793 1-462 partner): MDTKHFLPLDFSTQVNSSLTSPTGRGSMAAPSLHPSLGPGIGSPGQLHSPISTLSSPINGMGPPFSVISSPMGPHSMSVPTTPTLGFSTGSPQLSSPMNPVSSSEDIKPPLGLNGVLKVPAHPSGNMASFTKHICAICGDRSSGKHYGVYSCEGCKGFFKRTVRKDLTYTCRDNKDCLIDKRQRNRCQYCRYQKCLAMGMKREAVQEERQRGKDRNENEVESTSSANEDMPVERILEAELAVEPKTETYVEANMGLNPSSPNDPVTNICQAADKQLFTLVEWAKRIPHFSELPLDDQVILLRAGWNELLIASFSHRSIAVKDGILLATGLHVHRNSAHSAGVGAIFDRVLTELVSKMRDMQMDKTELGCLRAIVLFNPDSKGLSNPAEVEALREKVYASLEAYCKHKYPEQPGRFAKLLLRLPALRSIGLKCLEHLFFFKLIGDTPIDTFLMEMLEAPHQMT
Experimental: Cells were transfected and cell extracts prepared essentially as follows. For whole cell extracts, CV-1 cells were cultured with D-MEM (Gibco-BRL Life Technologies; Rockville, Md.) containing 10% activated charcoal extracted fetal bovine serum (Gemini Bio-Products). At a density of 40˜60% (15-cm plate, Falcon; Fort Worth, Tex.), cells were transiently transfected with 15 μl FuGene 6 Transfection Reagent (Roche Diagnostics) with 0.5 ug of pRS-RXRα, and 5 ug of either pcDNA3.1-hRARα-V5, pcDNA3.1-hRARβ-V5 or pcDNA3.1-hRARγ-V5 per plate. After two days, cells were rinsed twice with PBS and lysed in cold NET buffer (20 mM Tris-Cl [pH8.0], 200 mM NaCl, 1 mM EDTA, 0.1% NP-40, 10% glycerol) containing protease inhibitors, homogenized by QIAshredder (Qiagen; Valencia, Calif.), and clarified by centrifugation.
Immunoprecipitations and western analyses were performed as follows. CV-1 whole cell extract from transfected cells (1 mg) was used for each immunoprecipitation. Cell lysates were incubated with ligands on ice for 1 hour. […] After a 1 hour incubation on ice with primary antibody (mouse anti-V5, Invitrogen), protein G-agarose (SIGMA) was added and samples were rocked overnight at 4° C. […] Membranes were probed with the indicated antibodies in PBS-T buffer (PBS with 0.1% Tween-20) containing 5% nonfat dry milk, and washed in PBS-T buffer. Primary antibodies (#SC553, rabbit anti-RXRα; #SC1609, goat anti-N-CoR) were obtained from Santa Cruz Biotech and Affinity BioReagents (#MA1-840, mouse anti-SRC-1; Golden, Colo.).
The DNA dependent coregulator recruitment assay was used to measure the ability of RARα selective ligands shown in Table 2 to recruit the coactivators SRC-1 and ACTR to the RARα/RXRα heterodimer bound to a DR-5 retinoic acid receptor response element (RARE).

ER-RARα = ER-RARα chimeric receptor transactivation assay in transfected CV-1 cells (luciferase); format: cell-based; conditions: CV-1 cells transfected with ER-RARα; highest dose tested 1 μM; FIG. 3A
Experimental: (§1) RAR transactivation assays were performed essentially as previously described. For analysis of ER-RARα chimeric receptor transactivation, 5×10^3 CV-1 cells were plated per well of a 96-well microtiter plate and were transiently transfected with Lipofectamine and the indicated DNA. Specifically, transfections were performed with 0.1 μg of pERE-tk-Luc reporter, which contains the estrogen regulated element of the Xenopus vittelogenin A2 gene inserted into the plasmid tk-Luciferase, and 0.01 μg of the SV-40 based vector pECE carrying a chimeric ER-RAR receptor consisting of the estrogen receptor A/B and DNA binding domains fused to the DEF domain of RARα, β or γ. Alternatively, cells were cotransfected with the reporter plasmid MTV-4 (R5G)-Luciferase together with the plasmid pRS-hRXRα and either pRS-RARα-P-GR, pcDNA3-RARβ-P-GR, or pcDNA3-RARγ-P-GR as previously described (Klein et al., J. Biol. Chem. 271:22692-22696 (1996)). After eighteen hours, cells were rinsed with phosphate buffered saline (PBS) and fed with D-MEM (Gibco-BRL) containing 10% activated charcoal extracted fetal bovine serum (Gemini Bio-Products). Cells were treated with retinoids for 18 hours after which they were lysed; luciferase activity was measured as previously described, with luciferase values representing the mean±SEM of quadruplicate determinations.

[2] = target: T2, RARα R272-A containing ternary complex (Homo sapiens, UniProt P10276, R272A); assay: Ternary complex coregulator assay with RARα-V5 mutant R272-A; format: biochemical; conditions: 1 μM ligand; FIG. 2
T2 construct: expressed in transfected cells; host or cells: CV-1 cells, transient transfection; whole cell extract
T2 sequence (P10276 1-462 R272A): T1 sequence (P10276 1-462) with R272A
T2 sequence (P19793 1-462 partner): T1 sequence (P19793 1-462 partner)
Experimental: Immunoprecipitations and western analyses were performed as follows. CV-1 whole cell extract from transfected cells (1 mg) was used for each immunoprecipitation. Cell lysates were incubated with ligands on ice for 1 hour. […] After a 1 hour incubation on ice with primary antibody (mouse anti-V5, Invitrogen), protein G-agarose (SIGMA) was added and samples were rocked overnight at 4° C. […] Membranes were probed with the indicated antibodies in PBS-T buffer (PBS with 0.1% Tween-20) containing 5% nonfat dry milk, and washed in PBS-T buffer. […]

AP-1 = assay: Anti-AP1 assay: phorbol ester stimulated collagenase-promoter reporter containing an AP-1 response element; format: cell-based; conditions: for anti-AP-1 activity (antagonism of TPA stimulated collagenase reporter activity): FIG. 6
Experimental: The ability of AGN196382 to antagonize phorbol ester stimulated transcription was assayed using a collagenase-promoter reporter construct containing an AP-1 response element. […] Specifically, detection of anti-AP-1 activity by AGN196382 was only detectable at doses greater than 10 μM; similarly, detection of SRC-1 recruitment to the ternary complex by 196382 was apparent only at doses greater than 10 μM. Such elevated doses of AGN196382, while sufficient for efficacious anti-AP-1 activity, are not sufficient for efficient transcriptional activation of RARα.

[3] = test system: RARα-P-GR (wild type RARα); assay: RARα-P-GR retinoid reporter transactivation in CV-1 cells; format: cell-based; conditions: FIG. 4
Experimental: as §1, with “After eighteen hours, cells were rinsed with phosphate buffered saline (PBS) and fed with D-MEM (Gibco-BRL) containing 10% activated charcoal extracted fetal bovine serum (Gemini Bio-Products).” left out
The RAR=60 R272-A mutant was analyzed for dominant negative activity using a retinoid reporter system responsive to transfected RARs recognizing RAREs containing a glucocorticoid receptor half-site (Klein et al., supra, 1996).

RARα(R272-A)-P-GR = RARα(R272-A)-P-GR retinoid reporter transactivation in CV-1 cells; format: cell-based; conditions: FIG. 4
Experimental: RAR transactivation assays were performed essentially as previously described. For analysis of ER-RARα chimeric receptor transactivation, 5×10^3 CV-1 cells were plated per well of a 96-well microtiter plate and were transiently transfected with Lipofectamine and the indicated DNA. […] After eighteen hours, cells were rinsed with phosphate buffered saline (PBS) and fed with D-MEM (Gibco-BRL) containing 10% activated charcoal extracted fetal bovine serum (Gemini Bio-Products). Cells were treated with retinoids for 18 hours after which they were lysed; luciferase activity was measured as previously described, with luciferase values representing the mean±SEM of quadruplicate determinations.

[4] = target: RARα/RXRα heterodimer (wild type RARα-V5 with RXRα) in the RAR/RXR/DNA ternary complex (human) (UniProt P19793); assay: co-immunoprecipitation of ternary complex, western blot; with 1 µM AGN196382, relative to 1 µM TTNPB
[5] = target: RARα/RXRα heterodimer (wild type RARα-V5 with RXRα) in the RAR/RXR/DNA ternary complex (human) (UniProt P19793); assay: co-immunoprecipitation of ternary complex, western blot; with 1 µM AGN194794, relative to 1 µM TTNPB

| Compound | ligand mediated dissociation of N-CoR [1] | transactivation at RARα (ER-RARα) | p300 recruitment relative to TTNPB ([1]; ligands 1 μM, FIG. 3B) [%] | SRC-1 recruitment to the wild type ternary complex [1] | anti-AP-1 activity (antagonism of TPA stimulated collagenase reporter activity) (AP-1) | other results |
| --- | --- | --- | --- | --- | --- | --- |
| CC(C)c1cc(C(=O)Nc2ccc(C(=O)O)c(F)c2)c(O)c(C(C)C)c1 [AGN194365] | dissociation of N-CoR | potent and effective transactivation properties |  |  |  | SRC-1 recruitment compared to TTNPB ([1]; ligands 1 μM, FIG. 3B): 65% |
| CC12CCC(C)(CC1)c1c2cc(C(=O)Nc2cc(F)c(C(=O)O)c(F)c2)c(O)c1Br [AGN194794] | full N-CoR disengagement | activated RARα, albeit with slightly less efficacy and potency | 34 | essentially identical for the two ligands |  | ligand mediated dissociation of N-CoR ([1]; listed as 194794): dissociation of N-CoR |
| CCOc1c(C(C)C)cc(C(=O)Nc2cc(F)c(C(=O)O)c(F)c2)cc1C(C)C [AGN196382] | nearly absent | no activity at RARα except at the highest dose (1 μM) tested | 30 | essentially identical for the two ligands | similarly efficacious | SRC-1 recruitment to RARα R272-A ternary complex [2]: lack of recruitment of SRC-1; dose at which anti-AP-1 activity is detectable (AP-1): greater than 10 μM; activation of wild type RARα [3]: significantly reduced relative to TTNPB; activation of RARα(R272-A) (RARα(R272-A)-P-GR): not activated at all; dose at which SRC-1 recruitment to the ternary complex is apparent [1]: greater than 10 μM; ligand mediated dissociation of N-CoR ([1]; listed as 196382): significantly impaired |
| CCOc1c(C2CC2)cc(C(=O)Nc2cc(F)c(C(=O)O)c(F)c2)cc1C(C)(C)C [AGN196412] | significantly impaired | no activity at RARα except at the highest dose (1 μM) tested |  |  |  | ACTR recruitment compared to TTNPB ([1]; ligands 1 μM, FIG. 3B): 65% |
| C/C(=C\c1ccc(C(=O)O)cc1)c1ccc2c(c1)C(C)(C)CCC2(C)C [TTNPB, reference compound] |  |  |  |  | potent and efficacious anti-AP-1 activity |  |
| p300 (coactivator p300/CBP) (from UniProt Q09472 2-2414) |  |  |  |  |  | % recruitment relative to TTNPB [4]: 30%; % recruitment relative to TTNPB [5]: 34% |

— US20030003517A1, “Methods of detecting dissociated nuclear hormone receptor ligands” (priority 2001, published 2003)
